Experimental data: patent US6136808A, “Taxane derivatives” (Kabushiki Kaisha Yakult Honsha, priority 1997, dated 2000)
Values after ≈ are worked out from the molar mass of the structure shown. Where two headings read alike, the source gives them in different places.

Columns and labels:
[1] = Solubility test in water of taxane derivatives (HPLC); settings: for Dissolved amount (Y): purified water + 0.1N hydrochloric acid (1.05 eq.), room temperature, 2 hours, HPLC; for solubility: water; for solubility at 2 h: water + 0.1n hcl
Procedure: I) Measurement of the solubility of the compound (b)
1) Preparation of a calibration curve
(§1) The compound (b) was weighed in an amount of 1.19 mg, to which 1.19 ml of acetonitrile was added so that the compound was dissolved to provide a standard solution. Using a 10 μl portion of the standard solution, the test was conducted by HPLC (operation conditions 1). […] The peak area obtained as an average of three measurements was plotted against the amount (10.0 μg) of the compound (b) per 10 μl, whereby a calibration curve was prepared.
Calibration curve: Y=2.08×10^-5 X [X: peak area, Y: amount (μg) of the compound (b)]
[HPLC operation conditions 1]
Column: Inertsil ODS-2 (5-250), 40 deg.
Mobile phase: 0.01M KH2 PO4 --CH3 CN (3:2)
Detection: Ultraviolet absorption photometer (225 nm), 0.2 aufs.
2) Solubility test of the compound (b)
(§2) The compound (b) was weighed in an amount of 4.0 mg and then suspended in 2.0 ml of purified water. To the resulting suspension, 45 μl (1.05 eq.) of 0.1N hydrochloric acid was added. By ultrasonication, the resulting mixture was formed into a uniform suspension, which was then shaken at room temperature for 2 hours. The thus-obtained mixture was filtered through a membrane filter (0.22 μm), and the filtrate was provided as a test solution. Using the resulting test solution, the test was conducted by HPLC (operation conditions 1). From the area obtained as an average of three measurements, the solubility of the compound (b) was determined.
II) Measurement of the solubility of the compound (j)
as §1, with “(j)” for “(b)”, “0.94” for “1.19”, “The” for “The peak”
Calibration curve: Y=2.02×10^-5 X [X: peak area, Y: amount (μg) of the compound (j)]
2) Solubility test of the compound (j)
as §2, with “(j)” for “(b)”, “4.24” for “4.0”, “46” for “45”

[2] = system: KB cells; assay: Cancer cell proliferation activities, growth inhibition of KB cells (XTT assay); assay type: cell-based; settings: Homo sapiens, 72 h
Procedure: Cancer Cell Proliferation Activities
As KB cells derived from a human mouth cancer, those purchased from Dainippon Pharmaceutical Co., Ltd. and stored in a lyophilized from at the Research Institute of that company was used. In Dulbecco's modified Eargle's medium containing 10% fetal bovine serum (product of NISSUI PHARMACEUTICAL CO., LTD.), the KB cells were cultured and maintained under the conditions of 5%, CO2 -air and 37° C.
Each compound was used by dissolving it at a concentration of 10 mg/ml in DMSO.
On Day-1, cells which were in a logarithmic growth phase were inoculated at 2,000 cells/100 μl/well on 96-well microtiter plates (Falcon #3072) by using a phenol-red-free culture medium with 10% fetal bovine serum contained therein (Dulbecco's modified Eargle's medium (Sigma)), and were cultured overnight. On Day 0, the compounds each of which had been diluted to 0.03 to 10,000 ng/ml with the same culture medium were added in 100 μl aliquots to the individual wells, and the cells were cultured for 3 days. Three wells were used per each drug concentration. Each plate was provided with three blank wells containing only the culture medium and also with eight wells as a drug-untreated control.
Upon use, XTT (Sigma) was dissolved at a concentration of 1 mg/ml in each culture medium which was free of serum. Phenodin methosulfate (Sigma) dissolved at a concentration of 5 mM in PBS was added to the resulting solution at a volume ratio of 1/200. To each well, the solution so prepared was added in an amount of 50 μl per well. Subsequent to culture for 4 hours, OD was measured at 450 nm by ELISA.
Calculation of 50% Growth Inhibitory Concentration (GI50)
GI50 was calculated by interpolation from a concentration-growth inhibition rate (GIR). GIR was determined in accordance with the following formula: [formula]

[3] = background statement on Taxol; cited from earlier work
[4] = system: ovarian cancer and breast cancer; settings: Ann. int. Med. 111, 273, 1989; cited from earlier work

Compound: CC(=O)OC12COC1CC(O)C1(C)C(=O)C(OC(=O)N3CCN(C)CC3)C3=C(C)C(OC(=O)C(O)C(NC(=O)c4ccco4)c4ccccc4)CC(O)(C(OC(=O)c4ccccc4)C21)C3(C)C (stereo not drawn) [Compound b, 13-O-[3-(2-Furoylamino)-2-hydroxy-3-phenylpropionyl]-10-O-(4-methylpiperazinocarbonyl)-10-deacetylbaccatin III]
- Dissolved amount (Y) [1]: 9.98 μg/5 μl
- solubility [1]: 2000 µg/mL (≈ 2160 µM)
- solubility at 2 h [1]: 2000 µg/mL
- GI50 ([2]; KB cells, 3 days, XTT, read-out: GI50): 1.4 ng/mL (≈ 0.00151 µM)

Compound: CCN1CCN(C(=O)OC2C(=O)C3(C)C(O)CC4OCC4(OC(C)=O)C3C(OC(=O)c3ccccc3)C3(O)CC(OC(=O)C(O)C(NC(=O)OC4CCCC4)c4ccccc4)C(C)=C2C3(C)C)CC1 (stereo not drawn) [Compound j, 13-O-(3-Cyclopentyloxycarbonylamino-2-hydroxy-3-phenylpropionyl)-10-O-(4-ethylpiperazinocarbonyl)-10-deacetylbaccatin III]
- Dissolved amount (Y) [1]: 9.20 μg/5 μl
- solubility [1]: 1840 µg/mL (≈ 1920 µM)
- solubility at 2 h [1]: 1840 µg/mL
- GI50 ([2]; KB): 0.58 ng/mL (≈ 0.000604 µM)

Compound: CC(=O)O[C@H]1C(=O)[C@@]2(C)[C@H]([C@H](OC(=O)c3ccccc3)[C@]3(O)C[C@H](OC(=O)[C@H](O)[C@@H](NC(=O)c4ccccc4)c4ccccc4)C(C)=C1C3(C)C)[C@]1(OC(C)=O)CO[C@@H]1C[C@@H]2O [Taxol, reference compound]
- solubility in water (in words) [3]: sparingly soluble in water
- solubility [1]: 0.4 µg/mL (≈ 0.468 µM)
- GI50 ([2]; KB): 1.3 ng/mL (≈ 0.00152 µM)
- efficacy against ovarian cancer and breast cancer [4]: high efficacy against ovarian cancer and breast cancer
